{Chol} = cholesterol
How the values were obtained:
HAEC cells [1] = assay: Ciliogenesis of HAEC cells under blocking of the Notch signalling pathway; type: cell-based, human; details: 10 μM
HAEC cells [2] = assay: Ciliogenesis of HAEC cells treated with antagomir during regeneration (tubulin-β4 positive cells); type: cell-based, human; details: number of ciliated HAEC cells at stage ALI-D21, n=6, P<0.001
Experimental: (a,b) the HEAC cells are treated several times with anti-miR-449 antagomirs or a control antagomir (20 nM) during their regeneration (generally 21 days). The percentage of ciliated cells was defined as the ratio of the number of cells positive to +tubulin-β4 relative to the number of nuclei (20 fields/filter and 3 filters/donor). […] The histogram indicates the percentage of ciliated cells per field for each experimental condition (n=6, ***, P<0.001, Student test).
Six independent cultures of HAEC cells were transfected with an oligonucleotide directed against the miR-449s and conjugated with a cholesterol molecule; ciliogenesis was evaluated during the regeneration time.
These tests use an antisense oligonucleotide of miR-449a (antagomir) bound at 3′ by a 2′-O-methyl bond to a molecule of cholesterol and with the sequence: 5′-ascscsagcuaacaauacacugcscsa-Chol-3′ (SEQ. ID. No. 207) (the phosphorothioate bonds are indicated by the subscript J (obtained according to Eurogentec (Seraing, Belgium).
The antagomir (100 μM) was preincubated in fetal calf serum (FCS) for 30 min RT. Then the antagomir-FCS mixture in a differentiation medium (20 μM of antagomir) is added on the apical face of the primary HAEC cells. After 2 h at 37° C., the mixture is withdrawn to restore the air-liquid interface. […]

miR-449 = assay: Expression of miRNAs in HAEC cells treated with antagomir; type: cell-based, human
[3] = system: basal cells and pyramidal cells of the airway epithelium; assay: miRNA expression in sorted basal cells versus pyramidal cells (ciliated + secretory), HTS and Agilent chips; set-up: species or system human
In short: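 Epithelium dissociated from nasal polyps is held 30 min in PBS-BSA-EDTA, then labelled 20 min at 4° C for CD151 and tissue factor. After DAPI staining, live single cells are sorted into marker-double-positive and double-negative fractions, and sort purity and identity are verified. Total RNA then undergoes miRNA profiling on arrays or by sequencing.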

[4] = system: human airway epithelial cells (HAECs); assay: High-throughput sequencing (HTS) of miRNAs at four stages of differentiation of HAECs
In short: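 Small-RNA libraries from differentiating HAECs (ALI-D0 to ALI-WD) were built by ligation-based SOLiD chemistry, size-selected and sequenced. Strand counts were normalized per million reads, converted to percentage abundance, and filtered on adjusted P-value below 0.05.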

[5] = system: human airway epithelial cells (HAECs); assay: Agilent miRNA chips, miRNA expression at four stages of differentiation of HAECs
In short: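 Expression read from hybridization signals on Human miRNA Microarray v2 arrays spanning all miRBase v.12.0 human miRNAs plus 89 viral ones. Samples are RNA from the same patients profiled by sequencing, labelled with the standard kit.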

## C[C@H](NC(=O)Cc1cc(F)cc(F)c1)C(=O)N[C@H](C(=O)OC(C)(C)C)c1ccccc1 [DCT]
HAEC cells [1]
  ciliogenesis during regeneration of the HAEC cells: potentiates ciliogenesis significantly

## anti-miR-449 antagomir: antisense oligonucleotide of miR-449a bound at 3′ to cholesterol, 5′-ascscsagcuaacaauacacugcscsa-Chol-3′ (SEQ. ID. No. 207) (antisense ACCAGCUAACAAUACACUGCCA; linkages s3 o16 s2 (s phosphorothioate, o phosphodiester), 3' {Chol}, sugars by position and methylation of C not given here; further chemistry not fully specified; listed as Homo sapiens)
HAEC cells [2]
  mean value of inhibition of ciliogenesis: 2.3±0.3
miR-449; n=6
  expression of miR449a: suppresses
  expression of miR-21: no effect
  expression of miR-449b: suppresses
miR-449; stage ALI-D21
  expression of miR-449: reduction of the same order

## hsa-miR-939: human miRNA, SEQ ID No. 50 (UGGGGAGCUGAGGCUCUGGGGGUG; expressed or natural sequence; listed as Homo sapiens)
[3]; HTS and Agilent chips
  Modulation of expression of the miRNAs in pyramidal cells (323(−)) relative to basal cells 323(+): 1.28
[3]; basal cells
  Intensity of the level of expression in log2 in basal cells (323(+)): 4.81 log2
[3]; pyramidal cells (ciliated + secretory)
  Intensity of the level of expression in log2 in pyramidal cells (323(−)): 6.08 log2
[4]; D7 − D0, Table VI
  Modulation (ratio of the level of intensity of expression in log2 in two stages of differentiation) measured by high-throughput sequencing, D7 − D0: 0.13 log2
[4]; FC − D7, Table VI
  Modulation (ratio of the level of intensity of expression in log2 in two stages of differentiation) measured by high-throughput sequencing, FC − D7: −0.13 log2
[4]; WD − D0, Table VI
  Modulation (ratio of the level of intensity of expression in log2 in two stages of differentiation) measured by high-throughput sequencing, WD − D0: 0.00 log2
[4]; WD − FC, Table VI
  Modulation (ratio of the level of intensity of expression in log2 in two stages of differentiation) measured by high-throughput sequencing, WD − FC: 0.00 log2
[4]; healthy human airway epithelial tissue, stage WD
  Level of intensity of expression in log2 At the differentiated stage (WD) measured in HTS: 5.43 log2
[4]; stage D0, Table VI
  Level of intensity of expression in log2 measured by high-throughput sequencing, D0: 0.01 log2
[4]; stage D7, Table VI
  Level of intensity of expression in log2 measured by high-throughput sequencing, D7: 0.15 log2
[4]; stage FC, Table VI
  Level of intensity of expression in log2 measured by high-throughput sequencing, FC: 0.01 log2
[4]; stage WD, Table VI
  Level of intensity of expression in log2 measured by high-throughput sequencing, WD: 0.01 log2
[5]; D7 − D0, Table VI
  Modulation (ratio of the level of intensity of expression in log2 in two stages of differentiation) measured with the Agilent chips, D7 − D0: 1.40 log2
[5]; FC − D7, Agilent miRNA chips, Table V
  Modulation (ratio of the level of intensity of expression in log2 at two stages of differentiation), FC − D7: −0.63 log2
[5]; FC − D7, Table VI
  Modulation (ratio of the level of intensity of expression in log2 in two stages of differentiation) measured with the Agilent chips, FC − D7: −0.63 log2
[5]; WD − D0, Table VI
  Modulation (ratio of the level of intensity of expression in log2 in two stages of differentiation) measured with the Agilent chips, WD − D0: 0.70 log2
[5]; WD − FC, Agilent miRNA chips, Table V
  Modulation (ratio of the level of intensity of expression in log2 at two stages of differentiation), WD − FC: −0.07 log2
[5]; WD − FC, Table VI
  Modulation (ratio of the level of intensity of expression in log2 in two stages of differentiation) measured with the Agilent chips, WD − FC: −0.07 log2
[5]; stage D0, Table VI
  Level of intensity of expression in log2 measured with the Agilent chips, D0: 6.64 log2
[5]; stage D7, Table VI
  Level of intensity of expression in log2 measured with the Agilent chips, D7: 8.04 log2
[5]; stage FC, Table VI
  Level of intensity of expression in log2 measured with the Agilent chips, FC: 7.41 log2
[5]; stage WD, Table VI
  Level of intensity of expression in log2 measured with the Agilent chips, WD: 7.34 log2

From patent US9023821B2, “Use of MicroRNA for treating diseases associated with a dysfunction of the cilia in multiciliated epithelial cells” (Centre National de la Recherche Scientifique, priority 2009, dated 2015)
